# Source: patent publication US20200077648A1, “PHENOXYPHENYLAMIDINES AND THE USE THEREOF AS FUNGICIDES” (priority 2016, published 2020)
# Assay: Log P measurement by HPLC on reversed phase columns (EEC directive 79/831 Annex V.A8; methods [a], [b], [c])
# Type: physicochemical
# Conditions: method [a]: LC-UV, acidic range, 0.1% formic acid in water and acetonitrile as eluent
# Protocol: If more than one Log P value is available within the same method, all the values are given and separated by “+”. […] Lambda-max-values were determined using UV-spectra from 200 nm to 400 nm and the peak values of the chromatographic signals.
row,SMILES,LogP
1,CCN(C)C=Nc1cc(C)c(Oc2cccc(Cl)c2)cc1C [Example 1],1.86^[a]
2,CCN(C)C=Nc1cc(C)c(Oc2cccc(Cl)c2F)cc1Cl [Example 3],1.88^[a]
3,Cc1cc(Oc2ccc(F)cc2)c(C)cc1N=CN(C)C(C)C [Example 4],1.66^[a];
4,CCN(C)C=Nc1cc(C)c(Oc2ccccc2C)cc1C(F)F [Example 6],1.72^[a]
5,CCc1ccccc1Oc1cc(C)c(N=CN(C)CC)cc1C [Example 10],2.06^[a]
6,CCN(C)C=Nc1cc(C)c(Oc2ccccc2C2CC2)cc1C [Example 11],2.09^[a]
7,CCN(C)C=Nc1cc(C)c(Oc2ccccc2)cc1C#N [Example 13],1.58^[a];
8,CCN(C)C=Nc1cc(C)c(Oc2ccccc2F)cc1OC [Example 14],1.46^[a];
9,CCN(C)C=Nc1cc(C)c(Oc2ccccc2C)cc1OC [Example 15],1.60^[a];
10,CCN(C)C=Nc1cc(C)c(Oc2ccccc2C#N)cc1Cl [Example 17],1.21^[a]
11,CCN(C)C=Nc1cc(Cl)c(Oc2ccccc2C#N)cc1C [Example 18],1.21^[a]
12,CCN(C)C=Nc1cc(C)c(Oc2ccccc2)cc1C(F)(F)F [Example 22],1.89^[a]
13,CCN(C)C=Nc1cc(C)c(Oc2ccccc2Cl)cc1C(F)(F)F [Example 23],2.08^[a]
14,CCN(C)C=Nc1cc(C)c(Oc2ccccc2F)cc1C(F)(F)F [Example 24],1.89^[a]
15,CCN(C)C=Nc1cc(C)c(Oc2ccccc2Br)cc1C(F)(F)F [Example 25],2.17^[a]
16,CCN(C)C=Nc1cc(C)c(Oc2ccccc2I)cc1C(F)(F)F [Example 26],2.28^[a]
17,CCN(C)C=Nc1cc(C)c(Oc2ccccc2C#N)cc1C(F)(F)F [Example 27],1.63^[a]
18,CCN(C)C=Nc1cc(C)c(Oc2ccccc2C)cc1C(F)(F)F [Example 28],1.96^[a]
19,CCN(C)C=Nc1cc(C)c(Oc2ccccc2Br)cc1Cl [Example 29],1.80^[a];
20,Cc1cc(Oc2ccccc2)c(I)cc1N=CN(C)C [Example 32],1.61^[a];
21,CCN(C)C=Nc1cc(C(F)(F)F)c(Oc2ccccc2C)cc1C [Example 33],1.96^[a]
22,CCc1cc(Oc2ccccc2)c(Br)cc1N=CN(C)C [Example 35],1.37^[a];
23,Cc1cc(N=CN(C)C)c(Cl)cc1Oc1ccccc1Br [Example 37],1.55^[a];

row,SMILES,LogP
1,CCN(C)C=Nc1cc(C)c(Oc2ccccc2C#N)cc1C(F)F [Example 38],1.55^[a]
2,CCN(C)C=Nc1cc(C)c(Oc2ccccc2Cl)cc1C(F)F [Example 39],1.88^[a]
3,CCN(C)C=Nc1cc(C)c(Oc2ccccc2Br)cc1C(F)F [Example 40],1.94^[a]
4,CCN(C)C=Nc1cc(C)c(Oc2ccccc2I)cc1C(F)F [Example 41],1.90^[a]
5,CCN(C)C=Nc1cc(Br)c(Oc2ccccc2C)cc1C [Example 43],1.72^[a]
6,CCN(C)C=Nc1cc(Br)c(Oc2ccccc2Cl)cc1C [Example 45],1.79^[a]
7,CCN(C)C=Nc1cc(Br)c(Oc2ccccc2Br)cc1C [Example 46],1.84^[a]
8,CCN(C)C=Nc1cc(Br)c(Oc2ccccc2I)cc1C [Example 47],1.92^[a]
9,CCN(C)C=Nc1cc(C)c(Oc2cccc(Cl)c2)cc1Cl [Example 49],1.84^[a]
10,CCN(C)C=Nc1cc(Cl)c(Oc2cccc(Cl)c2F)cc1C [Example 50],1.83^[a]
11,CCN(C)C=Nc1cc(C)c(Oc2ccccc2)cc1C1CC1 [Example 51],1.75^[a]
12,CCN(C)C=Nc1cc(C2CC2)c(Oc2ccccc2F)cc1C [Example 52],1.75^[a]
13,CCN(C)C=Nc1cc(C)c(Oc2cccc(Cl)c2F)cc1C [Example 53],1.89^[a]
14,CCN(C)C=Nc1cc(C(F)F)c(Oc2ccccc2F)cc1C [Example 54],1.49^[a]
15,CCN(C)C=Nc1cc(I)c(Oc2ccccc2Br)cc1C [Example 57],1.75^[a]
16,CCN(C)C=Nc1cc(I)c(Oc2ccccc2Cl)cc1C [Example 58],1.72^[a]
17,CCN(C)C=Nc1cc(I)c(Oc2ccccc2C)cc1C [Example 59],1.78^[a]
18,Cc1cc(N=CN(C)C)c(Cl)cc1Oc1ccccc1F [Example 60],1.37^[a]
19,Cc1cc(N=CN(C)C)c(Br)cc1Oc1ccccc1F [Example 61],1.39^[a]
20,Cc1cc(N=CN(C)C(C)C)c(Cl)cc1Oc1ccccc1F [Example 62],1.61^[a]
21,Cc1cc(N=CN(C)C(C)C)c(Br)cc1Oc1ccccc1F [Example 63],1.63^[a]
22,Cc1cc(Oc2ccccc2F)c(C)cc1N=CN(C)C [Example 66],1.43^[a]

# Same assay, conditions: method [a]: LC-UV, acidic range, 0.1% formic acid in water and acetonitrile as eluent (linear gradient 10% to 95% acetonitrile)
row,LogP,SMILES
1,1.66^[a],Cc1cc(Oc2ccccc2Br)c(C)cc1N=CN(C)C [Example 68]
2,1.97^[a],Cc1cc(Oc2ccccc2Br)c(C)cc1N=CN(C)C(C)C [Example 69]
3,1.25^[a],Cc1cc(Oc2ccccc2C#N)c(C)cc1N=CN(C)C [Example 70]
4,1.78^[a],CCN(C)C=Nc1cc(C)c(Oc2ccccc2C2CC2)cc1Cl [Example 74]
5,0.91^[a],CCN(C)C=Nc1cc(C)c(Oc2ccccc2S(C)(=O)=O)cc1Cl [Example 75]
6,0.78^[a],CCN(C)C=Nc1cc(C)c(Oc2ccccc2N(C)C)cc1Cl [Example 76]
7,1.35^[a],CCN(C)C=Nc1cc(C)c(Oc2ccccc2C(=O)OC)cc1Cl [Example 77]
8,1.55^[a],CCN(C)C=Nc1cc(C)c(Oc2ccccc2C(F)F)cc1Cl [Example 78]
9,1.66^[a],CCN(C)C=Nc1cc(C)c(Oc2cccc(F)c2Br)cc1Cl [Example 79]
10,1.32^[a],CCN(C)C=Nc1cc(C)c(Oc2cccc(F)c2C#N)cc1C [Example 80]
11,1.58^[a],CCN(C)C=Nc1cc(C)c(Oc2ccccc2F)cc1N(C)C [Example 81]
12,1.58^[a],CCN(C)C=Nc1cc(C)c(Oc2ccccc2)cc1N(C)C [Example 82]
13,1.63^[a],CCN(C)C=Nc1cc(C)c(Oc2ccccc2Br)cc1C [Example 83]
14,1.29^[a],CCN(C)C=Nc1cc(C)c(Oc2cc(F)ccc2C#N)cc1C [Example 84]
15,0.55^[a],CCN(C)C=Nc1cc(C)c(Oc2ccccc2N(C)C)cc1C [Example 85]
16,1.72^[a],CCN(C)C=Nc1cc(C)c(Oc2cccc(F)c2C)cc1C [Example 86]
17,1.21^[a],CCN(C)C=Nc1cc(C)c(Oc2ccccc2)cc1C(=O)N(C)C [Example 87]
18,1.69^[a],C=Cc1ccccc1Oc1cc(Cl)c(N=CN(C)CC)cc1C [Example 89]
19,1.81^[a],CCN(C)C=Nc1cc(C)c(Oc2ccccc2C(F)(F)F)cc1Cl [Example 90]

row,SMILES,LogP
1,CCN(C)C=Nc1cc(C)c(Oc2ccccc2)cc1C#N [Example 72],1.53^[a]

# Same assay, conditions: method [b]: LC-UV, neutral range, 0.001 molar ammonium acetate solution in water and acetonitrile as eluent
row,SMILES,LogP
1,Cc1cc(Oc2ccc(F)cc2)c(C)cc1N=CN(C)C(C)C [Example 4],5.63^[b]
2,CCN(C)C=Nc1cc(C)c(Oc2ccccc2)cc1C#N [Example 13],3.78^[b]
3,CCN(C)C=Nc1cc(C)c(Oc2ccccc2F)cc1OC [Example 14],4.33^[b]
4,CCN(C)C=Nc1cc(C)c(Oc2ccccc2C)cc1OC [Example 15],5.53^[b]
5,CCN(C)C=Nc1cc(C)c(Oc2ccccc2Br)cc1Cl [Example 29],4.93^[b]
6,Cc1cc(Oc2ccccc2)c(I)cc1N=CN(C)C [Example 32],4.51^[b]
7,CCc1cc(Oc2ccccc2)c(Br)cc1N=CN(C)C [Example 35],4.29^[b]
8,Cc1cc(N=CN(C)C)c(Cl)cc1Oc1ccccc1Br [Example 37],4.47^[b]

# Same assay, conditions: reversed phase HPLC column; method [a]: LC-UV, acidic range, 0.1% formic acid in water and acetonitrile as eluent
row,chromatographic logP,SMILES
1,1.69,"CCN(C)C=Nc1cc(C)c(Oc2ccccc2F)cc1C1CC1 [Example 34, N′-[2-cyclopropyl-4-(2-fluorophenoxy)-5-methyl-phenyl]-N-ethyl-N-methyl-formamidine]"
